# Test results taken from patent publication US9518022B2, “Anti-HIV compounds” (priority 2014, dated 2016).
# Where two headings read alike, the source gives them in different places.
# Assay: Cytotoxicity assay (AlamarBlue) in mock infected MT-2 cells
# Format: cell-based
# Conditions: human
# Description: The present assay was used to screen candidate antiviral compounds by quantification of virus spread and production over several rounds of infection in vitro. MT-2, a HIV-1 permissive human T-cell line, was seeded in microtiter plates and was simultaneously treated with serially diluted compound and inoculated with a HIV-1 NL4-3 viral clone engineered to express Renilla luciferase in place of Nef. Following treatment, the culture was incubated for 96 hours. After the incubation, media was collected and used to estimate relative infectivity on the indicator cell line, TZM-bl. Additionally, viral spread was quantified by measuring luciferase activity via a commercially available luciferase substrate. In parallel, MT-2 cells were seeded and inoculated with mock virus in the presence of serially diluted compound. Compound toxicity was quantified 96 hours after treatment with AlamarBlue.
# MT-2 (NIH Aids reagent program 237) cells were grown and maintained in an incubator at 37° C. with 5% CO2 using a basal medium of RPMI-1640 supplemented with 10% FBS. Cells were seeded in 100 μl at 2×10^4 cells/well in white walled 96-well microtiter plates. Candidate compounds were 3-fold serially diluted in the appropriate solvent. Solvent without compound was used as a no drug reference. Cells were inoculated at a multiplicity of 0.027 with an HIV-1 NL4-3 virus stock engineered to express Renilla luciferase in place of Nef. Diluted virus stock was first added to serially diluted compound. Compound and virus were delivered to cells in an equal volume (100 μl) and treated cultures were returned to the incubator for 96 hours. In parallel, plates for cytotoxicity estimates were prepared in the same way except cells were plated in clear walled 96-well microtiter plates and were mock infected.
# At 96 hours post treatment, 20 μl AlamarBlue proliferation reagent was added to 200 μl treated and mock infected cultures and incubated for 3 hours at 37° C. with 5% CO2 then read at 545, 590 nm on fluorescence plate reader (Biotek).
# For all assays, data was imported into Accelrys Assay Explorer 3.3. In Assay Explorer, % inhibition (antiviral or cytotoxicity) was calculated using the solvent control as a reference by the following equation: 1−(SignalCompound/SignalReference). The % Inhibition and compound concentration data was fitted using the following 4-parameter logistic model (Assay Explorer model 42):
# [formula] where X is compound concentration, Y is % inhibition, D is the maximum % Inhibition (constrained to 100%), C is IC50 value or inflection point, B is the hill slope, and A is the minimum % inhibition (constrained to 0%). The IC50 value is reported as the EC50 or CC50 depending on the assay endpoint. EC50 represents the effective concentration at which virus replication is inhibited by 50 percent. CC50 represents the concentration that results in the death of 50 percent of the host cells. The selectivity or therapeutic index (SI or TI), is the ratio of CC50 over EC50 and represents the relative effectiveness in inhibiting viral replication compared to inducing cell death.
# [1] = mock infected MT-2 cells, 96 hours, AlamarBlue, read-out: CC50
SMILES,CC50 at 96 h [µM],CC50 at 96 h [1] [µM]
"COc1cc2c(cc1OCc1ccccc1)CCNC2/C=C/c1c(C)ccc2c1OCCC2 (centres unmarked) [CC, 6-(benzyloxy)-7-methoxy-1-[(E)-2-(7-methyl-3,4-dihydro-2H-1-benzopyran-8-yl)ethenyl]-1,2,3,4-tetrahydroisoquinoline]",5.44,–
"COc1cc2c(cc1OCc1ccccc1)CCNC2/C=C/c1ccncc1 (centres unmarked) [AW, 6-(benzyloxy)-7-methoxy-1-[(E)-2-(pyridin-4-yl)ethenyl]-1,2,3,4-tetrahydroisoquinoline]",–,11.4
"COc1cc2c(cc1OCc1ccccc1)CCNC2/C=C/c1ccc2c(c1)CCCO2 (centres unmarked) [CB, 6-(benzyloxy)-1-[(E)-2-(3,4-dihydro-2H-1-benzopyran-6-yl)ethenyl]-7-methoxy-1,2,3,4-tetrahydroisoquinoline]",5.36,–
"CCOC(=O)c1coc(-c2cccc(/C=C/C3NCCc4cc(OCc5ccccc5)c(OC)cc43)c2)n1 (centres unmarked) [EF, ethyl 2-{3-[(E)-2-[6-(benzyloxy)-7-methoxy-1,2,3,4-tetrahydroisoquinolin-1-yl]ethenyl]phenyl}-1,3-oxazole-4-carboxylate]",5.9,–
"COc1cc2c(cc1OCc1ccccc1)CCNC2/C=C/c1ccccc1N (centres unmarked) [CX, 2-[(E)-2-[6-(benzyloxy)-7-methoxy-1,2,3,4-tetrahydroisoquinolin-1-yl]ethenyl]aniline]",20.8,–
"COc1cc(OC)c(/C=C/C2NCCc3cc(OCc4ccccc4)c(OC)cc32)cc1C (centres unmarked) [EH, 6-(benzyloxy)-1-[(E)-2-(2,4-dimethoxy-5-methylphenyl)ethenyl]-7-methoxy-1,2,3,4-tetrahydroisoquinoline]",3.59,–
"COc1cc2c(cc1OCc1ccccc1)CCNC2/C=C/c1ccccc1 (centres unmarked) [BI, 6-(benzyloxy)-7-methoxy-1-[(E)-2-phenylethenyl]-1,2,3,4-tetrahydroisoquinoline]",10,–
"COc1ccc(/C=C/C2NCCc3cc(OCc4ccccc4)c(OC)cc32)cc1Br (centres unmarked) [AR, 6-(benzyloxy)-1-[(E)-2-(3-bromo-4-methoxyphenyl)ethenyl]-7-methoxy-1,2,3,4-tetrahydroisoquinoline]",–,6.2
"COc1cc(/C=C/C2NCCc3cc(OCc4ccccc4)c(OC)cc32)ccn1 (centres unmarked) [AU, 6-benzyloxy-7-methoxy-1-[(E)-2-(2-methoxy-4-pyridyl)vinyl]-1,2,3,4-tetrahydroisoquinoline]",–,3.22
"COc1cc(/C=C/C2NCCc3cc(OCc4ccccc4)c(OC)cc32)cc(OC)c1 (centres unmarked) [AT, 6-(benzyloxy)-1-[(E)-2-(3,5-dimethoxyphenyl)ethenyl]-7-methoxy-1,2,3,4-tetrahydroisoquinoline]",4.85,–
"COc1ccc(/C=C/C2NCCc3cc(OCc4ccccc4)c(OC)cc32)cc1Cn1ccnc1C (centres unmarked) [EN, 6-(benzyloxy)-7-methoxy-1-[(E)-2-{4-methoxy-3-[(2-methyl-1H-imidazol-1-yl)methyl]phenyl}ethenyl]-1,2,3,4-tetrahydroisoquinoline]",4.03,–
"COc1cc(C)c(/C=C/C2NCCc3cc(OCc4ccccc4)c(OC)cc32)cc1OC (centres unmarked) [Example AH, 6-benzyloxy-1-[(E)-2-(4,5-dimethoxy-2-methyl-phenyl)vinyl]-7-methoxy-1,2,3,4-tetrahydroisoquinoline]",2.4,–
"COc1cc(C)c(/C=C/C2c3cc(OC)c(OCc4ccccc4)cc3CCN2C(=O)OC(C)(C)C)cc1OCc1ccccc1 (centres unmarked) [Example Y, tert-butyl 6-benzyloxy-1-[(E)-2-(5-benzyloxy-4-methoxy-2-methyl-phenyl)vinyl]-7-methoxy-3,4-dihydro-1H-isoquinoline-2-carboxylate]",28.1,–
"COc1cc(C(C)(C)C)c(/C=C/C2NCCc3cc(OCc4ccccc4)c(OC)cc32)cc1OCc1ccccc1 (centres unmarked) [Example J, 6-Benzyloxy-1-[(E)-2-(5-benzyloxy-2-tert-butyl-4-methoxy-phenyl)vinyl]-7-methoxy-1,2,3,4-tetrahydroisoquinoline]",5.36,–
"COc1cc(C)c(/C=C/C2c3cc(OC)c(OCc4ccccc4)cc3CCN2C(=O)NC(C)(C)C)cc1OCc1ccccc1 (centres unmarked) [Example O, 6-benzyloxy-1-[(E)-2-(5-benzyloxy-4-methoxy-2-methyl-phenyl)vinyl]-N-tert-butyl-7-methoxy-3,4-dihydro-1H-isoquinoline-2-carboxamide]",> 10,–
"COc1cc2c(cc1OCc1ccccc1)CCNC2/C=C/c1ccc(-c2cncnc2)cc1 (centres unmarked) [DS, 6-(benzyloxy)-7-methoxy-1-[(E)-2-[4-(pyrimidin-5-yl)phenyl]ethenyl]-1,2,3,4-tetrahydroisoquinoline]",7.39,–
"CCN1CCN(c2ccc(/C=C/C3NCCc4cc(OCc5ccccc5)c(OC)cc43)cc2)CC1 (centres unmarked) [DO, 6-(benzyloxy)-1-[(E)-2-[4-(4-ethylpiperazin-1-yl)phenyl]ethenyl]-7-methoxy-1,2,3,4-tetrahydroisoquinoline]",3.61,–
"COc1cc2c(cc1OCc1ccccc1)CCNC2/C=C/c1ccc(-c2ccccn2)cc1 (centres unmarked) [DZ, 6-(benzyloxy)-7-methoxy-1-[(E)-2-[4-(pyridin-2-yl)phenyl]ethenyl]-1,2,3,4-tetrahydroisoquinoline]",5.8,–
"COc1ccccc1/C=C/C1NCCc2cc(OCc3ccccc3)c(OC)cc21 (centres unmarked) [DG, 6-(benzyloxy)-7-methoxy-1-[(E)-2-(2-methoxyphenyl)ethenyl]-1,2,3,4-tetrahydroisoquinoline]",9,–
"COc1cc2c(cc1OCc1ccccc1)CCNC2/C=C/c1ccc(OC(F)(F)F)cc1C (centres unmarked) [Example AJ, (E)-6-(benzyloxy)-7-methoxy-1-(2-methyl-4-(trifluoromethoxy)styryl)-1,2,3,4-tetrahydroisoquinoline]",5,–
"COc1cc(F)c(/C=C/C2NCCc3cc(OCc4ccccc4)c(OC)cc32)cc1OC (centres unmarked) [BP, 6-(benzyloxy)-1-[(E)-2-(2-fluoro-4,5-dimethoxyphenyl)ethenyl]-7-methoxy-1,2,3,4-tetrahydroisoquinoline]",5.61,–
"COc1cc2c(cc1OCc1ccccc1)CCNC2/C=C/c1cc(C)c(OC)c(C(F)(F)F)c1 (centres unmarked) [CZ, 6-(benzyloxy)-7-methoxy-1-[(E)-2-[4-methoxy-3-methyl-5-(trifluoromethyl)phenyl]ethenyl]-1,2,3,4-tetrahydroisoquinoline]",4,–
"COc1cc2c(cc1OCc1ccccc1)CCNC2/C=C/c1ccc(OC)c2ccoc12 (centres unmarked) [Example AO, 6-Benzyloxy-7-methoxy-1-[(E)-2-(4-methoxybenzofuran-7-yl)vinyl]-1,2,3,4-tetrahydroisoquinoline]",9.94,–
"COc1cc2c(cc1OCc1ccccc1)CCNC2/C=C/c1ccc(-c2cccnc2)cc1 (centres unmarked) [DJ, 6-(benzyloxy)-7-methoxy-1-[(E)-2-[4-(pyridin-3-yl)phenyl]ethenyl]-1,2,3,4-tetrahydroisoquinoline]",5.86,–
"COc1cc2c(cc1OCc1ccccc1)CCNC2/C=C/c1ccc(F)cc1C (centres unmarked) [Example X, 6-benzyloxy-1-[(E)-2-(4-fluoro-2-methyl-phenyl)vinyl]-7-methoxy-1,2,3,4-tetrahydroisoquinoline]",–,5.3
"COc1cc(C)c(/C=C/C2NCCc3cc(OCc4ccccc4)c(OC)cc32)cc1OCCCCN=[N+]=[N-] (centres unmarked) [CD, 1-[(E)-2-[5-(4-azidobutoxy)-4-methoxy-2-methylphenyl]ethenyl]-6-(benzyloxy)-7-methoxy-1,2,3,4-tetrahydroisoquinoline]",1.63,–
